The record followed here is PubChem BioAssay AID1996.

Values after ≈ are worked out from the molar mass of the structure shown.

The conditions of the data set: buffer; pH 7.4; 200.0 µM.
In the case of `CCn1cc(C(=O)O)c(=O)c2cnc(N3CCN(C(=S)Nc4ccccc4)CC3)nc21`, the solubility (kinetic) was 27.2 µg/mL (≈ 62 µM).

With `O=C1NC2(CCCCCC2)C(=O)N1Cc1cccc([N+](=O)[O-])c1`, the solubility (kinetic) amounted to 32.1 µg/mL (≈ 101 µM). The solubility kinetic values of the last two molecules are within 1.5-fold of each other.

Molecule `COc1cc2c(cc1OC)C(c1cccc([N+](=O)[O-])c1)NC(=O)C2` (stereo unspecified) registered a kinetic solubility of 26.1 µg/mL (≈ 79.5 µM).

Turning to `Cc1ccc(OCC(=O)N2CCc3ccccc3C2)cc1`, the kinetic solubility is over 42.2 µg/mL.

As to `O=C(OCC(=O)N1CCOCC1)c1ccc(N2CCOCC2)c([N+](=O)[O-])c1`, the solubility (kinetic) was determined as 54.6 µg/mL (≈ 144 µM).

As for `CCN(c1ccccc1)S(=O)(=O)c1ccc(C(=O)NCC(=O)Nc2ccc(F)c(F)c2F)cc1`, the kinetic solubility is 2.8 µg/mL (≈ 5.7 µM).

Take `Cc1nccn1CCOc1ccc(Cl)cc1.O=C(O)C(=O)O`: the solubility (kinetic) was 45 µg/mL.

As for `COC(=O)c1ccc(NC(=O)C[n+]2ccccc2C)cc1.[Cl-]`, the kinetic solubility was over 48.1 µg/mL.

`COc1ccc(N2CC(C(=O)Nc3cccnc3)CC2=O)cc1` (stereo unspecified) registered a kinetic solubility of over 46.7 µg/mL.

With `CCOCCCNC(=O)/C(C#N)=C/c1ccc(C)o1`, the kinetic solubility was 35.4 µg/mL (≈ 135 µM).

As for `O=C(NC1CC1)c1ccc(NS(=O)(=O)c2ccccc2)cc1`, the kinetic solubility was over 47.5 µg/mL.

In turn, `COc1ccc2nc(SCC(=O)NC3CC3)c(C#N)cc2c1` yielded a solubility (kinetic) of 0.8 µg/mL (≈ 2.55 µM).

Take `Cc1scc(C(=O)N2CCN(c3ccc(Cl)cc3)CC2)c1C`: the kinetic solubility stood at 23.3 µg/mL (≈ 69.6 µM).

For `CC1(C(=O)OCC(=O)Nc2ccccc2)CC1(Cl)Cl` (stereo unspecified), the kinetic solubility amounted to 35 µg/mL (≈ 116 µM).

In turn, `CC(c1ccccc1)N1CCN(C(=O)CCl)CC1.Cl` (stereo unspecified) returned a kinetic solubility of 43.3 µg/mL.

Take `CCOc1ccc(NC(=S)N(C)C)cc1`: the kinetic solubility is over 33.6 µg/mL.

Molecule `O=C(Nc1cccc(Cl)c1Cl)C1CCCO1` (stereo unspecified) registered a kinetic solubility of 26.7 µg/mL (≈ 103 µM).

Molecule `Cc1noc(C)c1COC(=O)COc1ccc(C#N)cc1` registered a kinetic solubility of over 42.9 µg/mL.

In turn, `Cc1ccccc1-c1nc2ccc(Cl)cc2c(=O)n1O` yielded a kinetic solubility of over 43 µg/mL.

`CC(=O)COC(=O)C1=NN(c2ccccc2)C(=O)CC1`: the solubility (kinetic) was over 41.1 µg/mL.

Take `Cc1ccccc1NC(=O)Cc1cccs1`: the kinetic solubility is over 34.7 µg/mL.

`O=C(Nc1cccc(C(F)(F)F)c1)OC1CN2CCC1CC2` (stereo unspecified) had a kinetic solubility of over 47.1 µg/mL.

Molecule `CCSc1nsc(NC(=O)Nc2cccc(OC)c2)n1` had a solubility (kinetic) of 1.7 µg/mL (≈ 5.48 µM).

Molecule `O=C(NC(=S)N1CCN(c2ccccc2)CC1)c1c(F)cccc1F` had a solubility (kinetic) of over 54.2 µg/mL.

Take `CNC(=O)COC(=O)/C=C/c1cccc(F)c1`: the solubility (kinetic) is over 35.6 µg/mL.

On to `O=C(Cc1ccc(F)cc1)Nc1nc(-c2ccc(F)c(F)c2)cs1`, for which the solubility (kinetic) turned out to be 1.4 µg/mL (≈ 4.02 µM).

For the molecule `COc1ccc(CCNC(=S)c2ccccc2)cc1OC`, the solubility (kinetic) is over 45.2 µg/mL.

In the case of `CCOC(=O)c1c(C)n(C)c2cc(Br)c(OC)cc12`, the solubility (kinetic) was under 0.7 µg/mL.

`O=C(N/N=C/c1ccccn1)c1ccncc1`: the kinetic solubility is over 33.9 µg/mL.

As for `Cc1cc(=O)[nH]c2ccc(S(=O)(=O)Nc3ccc(O)cc3)cc12`, the solubility (kinetic) was over 49.6 µg/mL.

`Cn1c(S(=O)(=O)Cc2ccc(Cl)cc2)nc2ccccc21` registered a kinetic solubility of 8.7 µg/mL (≈ 27.1 µM).

`COc1ccccc1-c1noc(CCCC(=O)NC2CCCCC2)n1` showed a kinetic solubility of 48.5 µg/mL (≈ 141 µM).

`CC1CC1C(=O)N(C)CC(=O)Nc1cccc(F)c1` (stereo unspecified) came in with a solubility (kinetic) of over 39.6 µg/mL.

Regarding `O=[N+]([O-])c1cccc(CNC2CCCCCC2)c1`, the solubility (kinetic) stood at 24.6 µg/mL (≈ 99.1 µM).

Take `COc1ccc2c(c1O)C13CCN(C)C(C2)C1CCC(=O)C3` (stereo unspecified): the kinetic solubility is over 45.2 µg/mL.

In turn, `O=C(NCC1CCCO1)c1c(O)nc2sccn2c1=O` (stereo unspecified) registered a solubility (kinetic) of over 44.3 µg/mL.

On to `O=C(CSc1nnc(-c2ccncc2)o1)Nc1nncs1`, for which the kinetic solubility was over 48.1 µg/mL.

The molecule `CNC(=O)c1ccccc1S(=O)c1ccccc1COC(C)=O` (stereo unspecified) came in with a solubility (kinetic) of over 49.7 µg/mL.

`COC(=O)c1ccc(NC(=O)c2cc[n+]([O-])cc2)cc1` registered a solubility (kinetic) of over 40.8 µg/mL.

In the case of `CCOc1ccc(CNCCc2ccc3c(c2)OCO3)cc1`, the solubility (kinetic) was over 44.9 µg/mL.

In the case of `O=C(COc1ccccc1[N+](=O)[O-])Nc1ccc2oc(=O)ccc2c1`, the kinetic solubility was 0.5 µg/mL (≈ 1.47 µM).

`O=[N+]([O-])C(/C=C(/Cl)[N+](=O)[O-])=C(N1CCCCC1)N1CCCCC1` displayed a solubility (kinetic) of 29.1 µg/mL (≈ 84.4 µM).

`O=C(O)Cc1ccc(NC(=O)Cc2ccc3ccccc3c2)cc1`: the kinetic solubility is 3.7 µg/mL (≈ 11.6 µM).

Consider `O=C(Nc1ccccc1)c1ccc(NC(=O)C2CC2)cc1`, for which the kinetic solubility was found to be 1.2 µg/mL (≈ 4.28 µM). Against the preceding molecule, the solubility kinetic is about 3.1-fold lower.

Molecule `O=C(CSc1nccn1-c1ccccc1)NCc1ccc(F)cc1` came in with a kinetic solubility of 33.5 µg/mL (≈ 98.1 µM).

On to `COc1ccc(S(=O)(=O)NCc2cccnc2)c2ccccc12`, for which the solubility (kinetic) was 37.2 µg/mL (≈ 113 µM).

On to `COC(=O)c1c(C)[nH]c(C(=O)C(C)OC(=O)c2ccco2)c1C` (stereo unspecified), for which the solubility (kinetic) is 4.5 µg/mL (≈ 14.1 µM). Against the preceding molecule, the solubility kinetic is about 8.3-fold lower.

Molecule `CC(Oc1ccccc1)C(=O)OCC(=O)Nc1ccc2c(c1)OCO2` (stereo unspecified) gave a solubility (kinetic) of over 51.5 µg/mL.

With `Cc1ccc(N2C(=O)C3C4C=CC(CC4)C3C2=O)c([N+](=O)[O-])c1` (stereo unspecified), the kinetic solubility stood at 17.7 µg/mL (≈ 56.7 µM).

Turning to `COc1ccc(CC(=O)NCc2ccc3c(c2)cc(C)n3C)cc1OC`, the kinetic solubility came to 20.8 µg/mL (≈ 59 µM).

The molecule `NC(=O)c1ccccc1NC(=O)CSC1=NCCS1` displayed a solubility (kinetic) of over 44.3 µg/mL.
